In ChEMBL document CHEMBL1649104, “Benzofuran Derivatives as Potent, Orally Active S1P1 Receptor Agonists: A Preclinical Lead Molecule for MS” (ACS Med Chem Lett, 2011):
The source made the active and inactive calls. The calls are words filed in the database; no cut-off is given here.

Columns and labels:
[1] = molecular target: T1, Sphingosine 1-phosphate receptor 1 (Homo sapiens, UniProt P21453); experiment: Induction of human GFP-tagged chimeric S1P1R internalization in human U2Os cells by fluorescence microscopy; assay type: cell-based
[2] = molecular target: T2, Sphingosine 1-phosphate receptor 3 (Homo sapiens, UniProt Q99500); experiment: Agonist activity at human S1P3R expressed in CHO cells by Ca(2+) mobilization assay; assay type: functional, cell-based
[3] = molecular target: T2, Sphingosine 1-phosphate receptor 3; experiment: Displacement of [33P]S1P from human S1P3R expressed in CHO cell membranes
[4] = Clearance in Beagle dog at 2 mg/kg, iv or 3 mg/kg, po; assay type: ADME, organism-based, Canis lupus familiaris; details: in vivo
[5] = Inhibition of Cytochrome P450; assay type: ADME
Rattus norvegicus [6] = experiment: Toxicity in telemetered Sprague-Dawley rat assessed as effect on heart rate at 40 mg/kg, po; assay type: organism-based; set-up: dose 40 mg/kg, route oral; details: in vivo
[7] = Toxicity in rat assessed as No observed adverse effect level by 4 day repeated dose toxicity study; assay type: organism-based; details: in vivo
[8] = Volume of distribution at steady state in cynomolgus monkey at 1 mg/kg, iv or 5 mg/kg, po; assay type: ADME, organism-based, Macaca fascicularis; details: in vivo, read-out: Vdss
[9] = Volume of distribution at steady state in Beagle dog at 2 mg/kg, iv or 3 mg/kg, po; assay type: ADME, organism-based, Canis lupus familiaris; details: in vivo, read-out: Vdss
Rattus norvegicus [10] = experiment: Toxicity in telemetered Sprague-Dawley rat assessed as effect on heart rate at 20 mg/kg, po; assay type: organism-based; set-up: dose 20 mg/kg, route oral; details: in vivo
[11] = Metabolic stability in human liver microsomes assessed as half life; assay type: ADME, Microsome
[12] = Oral bioavailability in Sprague-Dawley rat 3 mg/kg; assay type: ADME, organism-based; details: in vivo
Mus musculus = experiment: Reversing disease course in experimental autoimmune encephalitis SJL mouse model of multiple sclerosis at 10 mg/kg, po; assay type: functional, organism-based; set-up: dose 10 mg/kg
[13] = Oral bioavailability in Beagle dog 3 mg/kg; assay type: ADME, organism-based, Canis lupus familiaris; details: in vivo
[14] = Oral bioavailability in cynomolgus monkey 5 mg/kg; assay type: ADME, organism-based, Macaca fascicularis; details: in vivo
[15] = Mean residence time in cynomolgus monkey at 1 mg/kg, iv or 5 mg/kg, po; assay type: ADME, organism-based, Macaca fascicularis; details: in vivo
[16] = Terminal half life in Sprague-Dawley rat at 1 mg/kg, iv or 3 mg/kg, po; assay type: ADME, organism-based; details: in vivo, read-out: beta t1/2 (converted)
[17] = molecular target: Voltage-gated inwardly rectifying potassium channel KCNH2 (Homo sapiens, UniProt Q12809); experiment: Inhibition of human ERG by patch-clamp method
Rattus norvegicus [18] = experiment: Toxicity in telemetered Sprague-Dawley rat assessed as increase in mean arterial pressure at 40 mg/kg, po measured 4 to 6 hrs post dose; assay type: organism-based, Artery; set-up: dose 40 mg/kg, route oral; details: in vivo
[19] = Mean residence time in Beagle dog at 2 mg/kg, iv or 3 mg/kg, po; assay type: ADME, organism-based, Canis lupus familiaris; details: in vivo
Rattus norvegicus [20] = experiment: Lymphopenic activity in Lewis rat assessed as reduction in blood lymphocyte counts at 3 mg/kg, po measured 24 hrs post dose; assay type: functional
[21] = Clearance in Sprague-Dawley rat at 1 mg/kg, iv or 3 mg/kg, po; assay type: ADME, organism-based; details: in vivo
Rattus norvegicus [22] = experiment: Lymphopenic activity in Lewis rat assessed as reduction in blood lymphocyte counts at 1 mg/kg, po measured 24 hrs post dose; assay type: functional
[23] = Terminal half life in Beagle dog at 2 mg/kg, iv or 3 mg/kg, po; assay type: ADME, organism-based, Canis lupus familiaris; details: in vivo, read-out: beta t1/2 (converted)
[24] = Induction of Cytochrome P450; assay type: ADME
Homo sapiens = organism: Homo sapiens; experiment: Selectivity for human S1P1R over human S1P3R
[25] = Mutagenic activity in Salmonella Typhimurium by Ames assay; assay type: toxicity; details: salmonella enterica subsp. enterica serovar typhimurium
[26] = Clearance in cynomolgus monkey at 1 mg/kg, iv or 5 mg/kg, po; assay type: ADME, organism-based, Macaca fascicularis; details: in vivo
Rattus norvegicus [27] = experiment: Toxicity in telemetered Sprague-Dawley rat assessed as increase in mean arterial pressure at 20 mg/kg, po measured 4 to 6 hrs post dose; assay type: organism-based, Artery; set-up: dose 20 mg/kg, route oral; details: in vivo
[28] = Mean residence time in Sprague-Dawley rat at 1 mg/kg, iv or 3 mg/kg, po; assay type: ADME, organism-based; details: in vivo
Rattus norvegicus [29] = experiment: Lymphopenic activity in po dosed Lewis rat assessed as reduction in blood lymphocyte counts measured 24 hrs post dose; assay type: functional, organism-based
[30] = Terminal half life in cynomolgus monkey at 1 mg/kg, iv or 5 mg/kg, po; assay type: ADME, organism-based, Macaca fascicularis; details: in vivo, read-out: beta t1/2 (converted)
[31] = Volume of distribution at steady state in Sprague-Dawley rat at 1 mg/kg, iv or 3 mg/kg, po; assay type: ADME, organism-based; details: in vivo, read-out: Vdss
[32] = molecular target: T1, Sphingosine 1-phosphate receptor 1; experiment: Induction of human GFP-tagged chimeric S1P1R internalization in human U2Os cells by fluorescence microscopy relative to 1-(4-(6-benzylbenzofuran-2-yl)-3-fluorobenzyl)azetidine-3-carboxylic acid; assay type: cell-based
[33] = molecular target: T1, Sphingosine 1-phosphate receptor 1; experiment: Agonist activity at human S1P1R expressed in CHO cells assessed as stimulation of [35S]GTPgammaS binding; assay type: functional, cell-based

T2 sequence (Q99500 whole entry): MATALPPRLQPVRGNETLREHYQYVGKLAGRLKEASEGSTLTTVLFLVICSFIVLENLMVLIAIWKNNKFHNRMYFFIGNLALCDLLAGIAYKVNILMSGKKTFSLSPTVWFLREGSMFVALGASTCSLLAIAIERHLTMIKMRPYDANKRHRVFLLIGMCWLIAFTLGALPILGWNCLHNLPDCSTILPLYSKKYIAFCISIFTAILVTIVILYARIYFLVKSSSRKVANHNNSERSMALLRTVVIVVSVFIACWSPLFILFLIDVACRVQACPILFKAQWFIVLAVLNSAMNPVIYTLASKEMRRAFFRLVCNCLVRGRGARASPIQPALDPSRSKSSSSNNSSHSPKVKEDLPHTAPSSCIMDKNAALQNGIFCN
T1 sequence (P21453 whole entry): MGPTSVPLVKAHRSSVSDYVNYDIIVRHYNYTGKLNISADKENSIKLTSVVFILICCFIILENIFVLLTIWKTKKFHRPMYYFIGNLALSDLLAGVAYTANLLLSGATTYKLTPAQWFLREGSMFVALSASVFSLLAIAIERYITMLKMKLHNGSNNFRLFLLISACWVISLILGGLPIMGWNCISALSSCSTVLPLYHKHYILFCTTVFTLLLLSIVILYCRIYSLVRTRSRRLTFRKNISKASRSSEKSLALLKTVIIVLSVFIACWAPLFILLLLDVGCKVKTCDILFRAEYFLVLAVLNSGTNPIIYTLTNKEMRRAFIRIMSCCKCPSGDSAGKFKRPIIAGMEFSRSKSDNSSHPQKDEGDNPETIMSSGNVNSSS
Chain of Voltage-gated inwardly rectifying potassium channel KCNH2 (Q12809 whole entry): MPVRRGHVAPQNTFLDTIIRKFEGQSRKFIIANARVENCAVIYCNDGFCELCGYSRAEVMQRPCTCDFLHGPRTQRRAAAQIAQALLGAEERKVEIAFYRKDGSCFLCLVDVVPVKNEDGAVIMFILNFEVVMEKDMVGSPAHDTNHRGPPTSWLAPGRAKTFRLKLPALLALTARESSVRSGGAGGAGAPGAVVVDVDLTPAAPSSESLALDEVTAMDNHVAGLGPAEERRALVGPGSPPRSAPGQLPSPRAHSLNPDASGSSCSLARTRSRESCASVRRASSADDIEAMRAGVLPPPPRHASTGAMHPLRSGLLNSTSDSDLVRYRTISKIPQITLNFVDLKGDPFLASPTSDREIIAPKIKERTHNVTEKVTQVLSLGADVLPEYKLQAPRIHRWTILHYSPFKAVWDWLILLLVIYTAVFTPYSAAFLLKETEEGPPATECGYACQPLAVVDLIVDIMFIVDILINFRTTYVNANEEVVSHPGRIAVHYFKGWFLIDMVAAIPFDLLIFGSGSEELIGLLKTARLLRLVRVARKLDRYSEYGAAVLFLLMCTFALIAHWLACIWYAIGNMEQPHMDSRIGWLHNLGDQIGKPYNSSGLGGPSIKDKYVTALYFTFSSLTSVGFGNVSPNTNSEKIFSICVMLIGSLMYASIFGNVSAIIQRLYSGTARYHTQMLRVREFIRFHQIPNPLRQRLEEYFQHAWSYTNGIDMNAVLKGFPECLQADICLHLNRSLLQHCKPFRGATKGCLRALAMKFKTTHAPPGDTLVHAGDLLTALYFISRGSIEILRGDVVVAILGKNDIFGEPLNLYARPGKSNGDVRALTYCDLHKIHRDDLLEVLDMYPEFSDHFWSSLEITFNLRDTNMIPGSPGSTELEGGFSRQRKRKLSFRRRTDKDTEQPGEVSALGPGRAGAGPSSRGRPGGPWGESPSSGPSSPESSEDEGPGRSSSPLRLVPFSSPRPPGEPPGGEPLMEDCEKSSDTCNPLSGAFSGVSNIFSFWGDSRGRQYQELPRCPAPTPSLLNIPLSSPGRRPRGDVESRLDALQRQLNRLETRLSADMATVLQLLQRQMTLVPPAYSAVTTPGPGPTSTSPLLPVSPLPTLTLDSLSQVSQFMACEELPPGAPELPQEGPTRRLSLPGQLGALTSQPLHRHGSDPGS

SMILES: CCCCOc1ccc2oc(-c3ncc(CN4CC(C(=O)O)C4)s3)cc2c1
- EC50 [1]: > 1000 nM
- EC50 [2]: > 25 µM

SMILES: CC(C)Cc1ccc(-c2nc(-c3ccc(CN4CC(C(=O)O)C4)cc3)no2)cc1
- IC50 [3]: 12 µM

SMILES: FC(F)(F)c1cccc(-c2noc(-c3cc(-c4ccccc4)c(C(F)(F)F)s3)n2)c1
- IC50 [3]: > 10 µM

SMILES: CC(C)(C)c1ccc(-c2nnc(-c3ccc(CN4CC(C(=O)O)C4)cc3)o2)cc1
- IC50 [3]: > 10 µM

SMILES: O=C(O)C1CN(Cc2ccc(-c3cc4cc(Cc5ccccc5)ccc4o3)c(F)c2)C1
- clearance [4]: 4.43 mL/min/kg
- inhibition (INH) [5]: Not Active
- Activity (Rattus norvegicus [6]): Non-toxic
- NOAEL at 96 h [7]: 20 mg/kg
- Vd [8]: 1 L/kg
- Vd [9]: 2.2 L/kg
- Activity (Rattus norvegicus [10]): Non-toxic
- half-life [11]: > 90 min
- bioavailability [12]: 80%
- inhibition (Mus musculus): Active
- bioavailability [13]: 51%
- bioavailability [14]: 88%
- MRT [15]: 3.4 h
- half-life [16]: 726 min
- IC50 [17]: 17 µM
- Activity (Rattus norvegicus [18]): Toxic
- MRT [19]: 9 h
- inhibition in vivo at 3 mg/kg (Rattus norvegicus [20]): 75%
- clearance [21]: 2.3 mL/min/kg
- inhibition in vivo at 1 mg/kg (Rattus norvegicus [22]): 75%
- half-life [23]: 1270 min
- EC50 [1]: 57 nM
- Activity [24]: Not Active
- Selectivity ratio (Homo sapiens): > 1000
- Activity [25]: Non-toxic
- EC50 [2]: 27 µM
- clearance [26]: 5.15 mL/min/kg
- Activity (Rattus norvegicus [27]): Toxic
- MRT [28]: 12.7 h
- inhibition (Rattus norvegicus [29]): Dose-dependent effect
- half-life [30]: 282 min
- Vd [31]: 1.7 L/kg

SMILES: O=C(O)C1CN(Cc2ccc(-c3cc4cc(C5CCCCC5)ccc4o3)c(F)c2)C1
- Efficacy [32]: 100%
- EC50 [1]: 48 nM
- EC50 [2]: > 25 µM

SMILES: CCCCOc1ccc2oc(-c3ccc(CN4CC(C(=O)O)C4)cc3OC)cc2c1
- Efficacy [32]: 117%
- EC50 [1]: 653 nM
- EC50 [2]: > 25 µM

SMILES: O=C(O)C1CN(Cc2ccc(-c3cc4cc(Oc5ccccc5)ccc4o3)cc2)C1
- EC50 [2]: > 25 µM

SMILES: O=C(O)C1CN(Cc2ccc(-c3cc4cc(Cc5ccccc5)ccc4o3)cc2)C1
- EC50 [1]: 2070 nM
- EC50 [2]: > 4.3 µM
- EC50 [33]: 440 nM

SMILES: O=C(O)C1CN(Cc2ccc(-c3cc4cc(OCC5CCCC5)ccc4o3)c(F)c2)C1
- Efficacy [32]: 71%
- EC50 [1]: 454 nM
- EC50 [2]: > 25 µM

SMILES: O=C(O)C1CN(Cc2ccc(-c3cc4cc(C5CCCCC5)ccc4o3)cc2)C1
- EC50 [1]: 460 nM
- EC50 [2]: > 25 µM
- EC50 [33]: 600 nM

SMILES: CCCCOc1ccc2cc(-c3ccc(CN4CC(C(=O)O)C4)cc3)oc2c1
- Efficacy [32]: 89%
- EC50 [1]: 2290 nM
- EC50 [2]: 25 µM

SMILES: O=C(O)C1CN(Cc2ccc(-c3cc4cc(-c5cccnc5)ccc4o3)cc2)C1
- EC50 [1]: 5030 nM
- EC50 [2]: > 25 µM
- EC50 [33]: > 1000 nM

SMILES: CCCCc1ccc2oc(-c3ccc(CN4CC(C(=O)O)C4)cc3)cc2c1
- EC50 [1]: 2480 nM
- EC50 [2]: > 25 µM
- EC50 [33]: 350 nM

SMILES: CCCCOc1ccc2oc(-c3ccc(CN4CC(C(=O)O)C4)cc3Cl)cc2c1
- Efficacy [32]: 104%
- EC50 [1]: 158 nM
- EC50 [2]: 10.3 µM

SMILES: O=C(O)C1CN(Cc2ccc(-c3cc4cc(OCC5CC5)ccc4o3)c(F)c2)C1
- Efficacy [32]: 156%
- EC50 [1]: 290 nM
- EC50 [2]: 4.8 µM

SMILES: CC(C)(C)c1ccc(-c2noc(-c3ccc(CN4CC(C(=O)O)C4)cc3)n2)cc1
- IC50 [3]: > 10 µM

SMILES: CCCCOc1ccc2oc(-c3ccc(CN4CC(C(=O)O)C4)cc3)cc2c1
- EC50 [2]: > 7.2 µM

SMILES: O=C(O)C1CN(Cc2ccc(-c3cc4cc(C5CCCCC5)ccc4o3)nc2)C1
- Efficacy [32]: 115%
- EC50 [1]: 424 nM
- EC50 [2]: > 25 µM

SMILES: O=C(O)C1CN(Cc2ccc(-c3cc4cc(CCc5ccccc5)ccc4o3)cc2)C1
- EC50 [1]: 354 nM
- EC50 [2]: > 25 µM

SMILES: O=C(O)C1CN(Cc2ccc(-c3cc4cc(Cc5ccccc5)ccc4o3)cc2F)C1
- Efficacy [32]: 100%
- EC50 [1]: 253 nM
- EC50 [2]: 3.43 µM

SMILES: CC(C)Cc1ccc2oc(-c3ccc(CN4CC(C(=O)O)C4)cc3)cc2c1
- EC50 [1]: 150 nM
- EC50 [2]: 1.9 µM

SMILES: O=C(O)C1CN(Cc2ccc(-c3cc4cc(N5CCCCC5)ccc4o3)cc2)C1
- EC50 [1]: 620 nM
- Selectivity ratio (Homo sapiens): 2
- EC50 [2]: 1.44 µM
